Reference: US20230150951A1, “2,5- OR 2,6-DISUBSTITUTED HYDROQUINONE DERIVATIVES WITH AT LEAST ONE CARBOXY, SULFO OR AMIDO GROUP USEFUL AS MEDICAMENTS” (OM PHARMA SA, priority 2020, published 2023)

Assays:
Format in all cases: cell-based
FGF-1 = target: T1, FGF-1 (Homo sapiens, UniProt P05230); assay: FGF-1 induced sprouting of HUVEC, spheroid-based cellular angiogenesis assay; settings: FGF-1 25 ng/mL preincubated with compound, 24 h
T1 construct: purchased Peprotech 100-17A
Summary of the method: (§1)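 Compound (final 100 down to 1.56×10^−6 M) was mixed with growth factor (final 25 ng/mL) for 30 min at 37°C, then added onto collagen-embedded 400-cell HUVEC spheroids.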

FGF-2 = target: T2, FGF-2 (Homo sapiens, UniProt P09038); assay: FGF-2 induced sprouting of HUVEC, spheroid-based cellular angiogenesis assay; settings: FGF-2 25 ng/mL preincubated with compound, 24 h
T2 construct: purchased Peprotech 100-18C
Summary of the method: as §1

VEGF-A = target: T3, VEGF-A (Homo sapiens, UniProt P15692); assay: VEGF-A induced sprouting of HUVEC, spheroid-based cellular angiogenesis assay; settings: VEGF-A 25 ng/mL preincubated with compound, 24 h, read-out: VEGF-A1 IC50
T3 construct: purchased ProQinase GmbH
T3 sequence (P15692 27-191 isoform P15692-4): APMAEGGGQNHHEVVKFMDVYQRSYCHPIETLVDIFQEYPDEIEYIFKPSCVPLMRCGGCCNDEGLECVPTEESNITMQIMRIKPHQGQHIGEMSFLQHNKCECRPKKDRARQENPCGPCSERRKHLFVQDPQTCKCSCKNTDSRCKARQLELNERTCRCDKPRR
Protocol: Aim of this in vitro method is to assess compounds effects on FGF-2, FGF-1, or VEGF-A induced sprouting of human umbilical vein endothelial cells (HUVEC) in the spheroid-based cellular angiogenesis assay. Before adding the growth factors to the cells, they were preincubated with the compound. Sunitinib was tested as a control (without preincubation).
IC50 values determined for the tested compounds are expressed in microM [μM] and the values for the inhibition of FGF-1, FGF2 and VEGF-A induced growth (sprouting) are listed after each compound in the examples after chemical characterization.
Sprouting test was performed on the compounds dissolved in DMSO to reach 100-fold concentrated stock solutions and dissolved in culture media. Sunitinib as reference compound was provided by ProQinase GmbH. Growth factors were purchased from rhFGF-basic (FGF-2), Peprotech, New Jersey, USA, #100-18C, Lot #0415571; rhFGF-acidic (FGF-1), Peprotech, New Jersey, USA, #100-17A, Lot #031207; hVEGF-A165 (ProQinase GmbH, Freiburg, Germany; 05.02.2010) were used for stimulation of HUVEC cells growth.
Test system: Endothelial cells from human umbilical vein (HUVEC) from pooled donors were stored frozen with 70% medium, 20% FCS, 10% DMSO at about 1×10^6 cells/ampoule. HUVEC cells, primary human umbilical vein endothelial cells (PromoCell, Heidelberg, Germany), were used after passage 3 to 4. Morphology of the cells are adherent, cobblestone-like growing as monolayer and were cultured in endothelial cell growth and basal medium (ECGM/ECBM, PromoCell). The subculture was split 1:3; every 3-5 days, seed out at ca. 1×10^4 cells/cm^2 and incubated at 37° C. with 5% CO2 with a doubling time 24-48 hours
Dilution of test compounds: 100× concentrated solutions (concerning to the final assay concentrations) of each test compound were prepared with the appropriate solvent (in DMSO or in water). These 100×compound solutions were further diluted in endothelial cell growth and basal medium (ECBM) 1:7.5 to get a 13.33× concentrated solution. 75 μl of the 13.33×solution was subsequently mixed with 25 μl of 40× concentrated stimulus (solved in ECBM), resulting in a 10×concentrated stimulus/compound mixture. This mixture (100 μl) was incubated for 30 min at 37° C. and then added to 900 μl gel, containing the HUVEC spheroids (resulting in the final assay concentration).
Test method: the experiments were pursued in modification of the originally published protocol (Korff and Augustin: J Cell Sci 112: 3249-58, 1999). In brief, spheroids were prepared as described (Korff and Augustin: J Cell Biol 143: 1341-52, 1998) by pipetting 400 HUVEC in a hanging drop on plastic dishes to allow overnight spheroid aggregation. 50 HUVEC spheroids were then seeded in 0.9 ml of a collagen gel and pipetted into individual wells of a 24 well plate to allow polymerization. The test compounds were preincubated with the growth factors (FGF-1, FGF-2 or VEGF-A final concentration 25 ng/mL) in a 10-fold concentrated solution and subsequently, 100 μl of this solution was added on top of the polymerized gel. All compounds were diluted in solvent (DMSO or water) as 100×stocks first (which means 100×stocks of each final assay concentration were prepared in solvent). Subsequently, these stocks were further diluted in medium (resulting in the 13.33×stocks of each final assay concentration) with final concentrations tested: 100, 50, 25, 12.5, 6.25, 3.13 and 1.56×10^−6 M). Plates were incubated at 37° C. for 24 hours and fixed by adding 4% PFA (Roth, Karlsruhe, Germany).
Quantification of growth factor inhibition: sprouting intensity of HUVEC spheroids treated with the growth factor and the inhibitors were quantitated by an image analysis system determining the cumulative sprout length per spheroid (CSL).

VEGFR-2 = target: T4, VEGFR-2 (Homo sapiens, UniProt P35968); assay: VEGF-165 induced phosphorylation of VEGF-Receptor on HUVEC; settings: HUVEC preincubated 60 min, VEGF165 25 ng/mL 2 min; read-out: VEGFR-Phosphorylation inhibition IC50
T4 construct: endogenous in cells; host or cells: primary HUVEC

Human neutrophils [1] = assay: Inhibition of ROS production in human neutrophils (isoluminol chemiluminescence); settings: Homo sapiens, Neutrophil, fMLP+TNF-α stimulated PMN
Summary of the method: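 Extracellular ROS measured as isoluminol-amplified chemiluminescence following 1 μM fMLP activation on fibrinogen-coated plates, readings every 25 sec over 250 sec minus HBSS/isoluminol background. Beforehand, cells were treated with compounds at 0.1, 0.3, 1, 3 or 10 μM (30 min, 37° C) and TNF-α (20 ng/ml, 10 min); duplicate or triplicate.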

Human neutrophils [2] = assay: Neutrophil adhesion under static conditions; settings: fMLP-stimulated adhesion to fibrinogen; method: 40 μM and 80 μM, concentration of the value not stated
Summary of the method: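 Donor buffy-coat neutrophils (3×10^6/ml, PBS with Ca/Mg, 10% FCS, pH 7.2) preincubated 30 min at 37° C with 40 μM or 80 μM compound, then stimulated 1 min at 37° C with 1 nM fMLP on fibrinogen-coated glass. Adherent cells fixed and counted by computer; mean ± SD, unpaired t-test.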

T4 sequence (P35968 20-1356): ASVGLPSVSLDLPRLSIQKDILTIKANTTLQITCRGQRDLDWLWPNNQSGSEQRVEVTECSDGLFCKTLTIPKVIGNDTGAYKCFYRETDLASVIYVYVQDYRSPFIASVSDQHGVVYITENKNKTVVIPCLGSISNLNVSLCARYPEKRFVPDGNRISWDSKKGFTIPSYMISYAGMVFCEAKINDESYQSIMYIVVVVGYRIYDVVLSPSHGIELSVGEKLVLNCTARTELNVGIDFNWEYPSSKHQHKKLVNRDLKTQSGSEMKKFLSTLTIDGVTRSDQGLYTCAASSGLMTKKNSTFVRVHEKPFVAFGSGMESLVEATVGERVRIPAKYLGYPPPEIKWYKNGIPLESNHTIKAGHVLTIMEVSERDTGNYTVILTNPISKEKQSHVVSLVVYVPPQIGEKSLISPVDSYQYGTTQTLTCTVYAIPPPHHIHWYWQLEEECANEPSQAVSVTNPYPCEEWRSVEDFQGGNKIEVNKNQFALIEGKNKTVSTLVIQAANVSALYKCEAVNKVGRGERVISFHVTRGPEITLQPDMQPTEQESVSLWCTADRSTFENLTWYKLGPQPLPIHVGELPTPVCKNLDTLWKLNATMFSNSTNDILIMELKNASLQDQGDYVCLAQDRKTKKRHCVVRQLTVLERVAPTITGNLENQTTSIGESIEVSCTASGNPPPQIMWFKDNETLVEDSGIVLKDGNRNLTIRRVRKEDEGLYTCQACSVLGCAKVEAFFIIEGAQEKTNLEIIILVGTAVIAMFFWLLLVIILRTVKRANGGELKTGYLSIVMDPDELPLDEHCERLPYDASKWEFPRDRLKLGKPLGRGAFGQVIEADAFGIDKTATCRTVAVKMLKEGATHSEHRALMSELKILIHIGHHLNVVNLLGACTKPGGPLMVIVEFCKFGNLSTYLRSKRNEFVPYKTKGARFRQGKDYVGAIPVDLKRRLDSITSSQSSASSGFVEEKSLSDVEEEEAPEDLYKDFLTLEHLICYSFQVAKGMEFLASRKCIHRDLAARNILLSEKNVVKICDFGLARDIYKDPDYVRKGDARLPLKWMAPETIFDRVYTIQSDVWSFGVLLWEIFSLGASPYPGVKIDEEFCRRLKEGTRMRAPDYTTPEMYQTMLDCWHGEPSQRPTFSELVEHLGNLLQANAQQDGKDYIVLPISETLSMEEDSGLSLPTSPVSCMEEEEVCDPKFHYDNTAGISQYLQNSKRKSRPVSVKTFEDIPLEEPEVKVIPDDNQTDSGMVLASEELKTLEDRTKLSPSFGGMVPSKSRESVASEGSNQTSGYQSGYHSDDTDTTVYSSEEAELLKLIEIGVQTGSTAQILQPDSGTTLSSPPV
T1 sequence (P05230 whole entry): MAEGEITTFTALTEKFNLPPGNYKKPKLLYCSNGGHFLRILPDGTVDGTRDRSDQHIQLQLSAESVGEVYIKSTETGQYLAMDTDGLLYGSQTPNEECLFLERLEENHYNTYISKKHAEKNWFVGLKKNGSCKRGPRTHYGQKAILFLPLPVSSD
T2 sequence (P09038 134-288): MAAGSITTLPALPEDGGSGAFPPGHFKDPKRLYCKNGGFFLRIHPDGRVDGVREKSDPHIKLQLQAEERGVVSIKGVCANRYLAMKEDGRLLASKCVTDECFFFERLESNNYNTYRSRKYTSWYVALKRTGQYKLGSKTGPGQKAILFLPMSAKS

Row | Compound | IC50 (FGF-1) [µM] | IC50 (FGF-2) [µM] | IC50 (VEGF-A) [µM] | IC50 (VEGFR-2) [µM] | inhibition at 0.3 µM (Human neutrophils [1]) [%] | Neutrophil adhesion inhibition (Human neutrophils [2]) [%] | IC50 (Human neutrophils [1]) [nM]
1 | O=C(O)c1cc(NC(=O)c2cc(O)c(C(=O)O)cc2O)ccc1O [Ia-004a, 4-(3-carboxy-4-hydroxyphenylaminocarbonyl)-2,5-dihydroxybenzoic acid] | 32 | 15 | 28 | 7.7 | 64.6 | 28.38 | –
2 | O=C(O)c1cc(O)c(C(=O)NCc2ccccc2C(=O)O)cc1O [Ia-053a, 4-(2-Carboxyphenylmethylaminocarbonyl)-2,5-dihydroxybenzoic acid] | ≥ 150 | 124 | 210 | ≥ 100 | 52.9 | 18.67 | 2500
3 | O=C(O)c1ccc(NC(=O)c2cc(O)cc(C(=O)O)c2O)cc1C(=O)O [IIa-014a, 4-(3-carboxy-2,5-dihydroxybenzamido)phthalic acid] | 40 | 61 | 91 | 17.6 | 73.9 | 21.5 | –
4 | O=C(O)c1ccc(C(=O)O)c(NC(=O)c2cc(O)c(C(=O)O)cc2O)c1 [Ia-012a, 2-(4-carboxy-2,5-dihydroxybenzamido)terephthalic acid] | 38 | 36 | 30 | ≥ 100 | 59.5 | 28.5 | 1850
5 | O=C(O)c1cc(O)c(CSCc2cc(O)c(C(=O)O)cc2O)cc1O [IIIc-058a, 4-((2,5-Dihydroxy-4-carboxyphenyl)methylthiomethyl)-2,5-dihydroxybenzoic acid] | 12 | 12 | 124 | 0.29 | 61.2 | 23 | 1170
6 | O=C(O)c1cc(O)c(C(=O)Nc2c(C(=O)O)cccc2C(=O)O)cc1O [Ia-013a, 2-(4-carboxy-2,5-dihydroxybenzamido)isophthalic acid] | 29 | 18 | 17 | ≥ 100 | 38.5 | 27.67 | 2380
7 | O=C(O)c1cc(O)c(C(=O)Nc2cccc(C(=O)O)c2C(=O)O)cc1O [Ia-011a, 3-(4-carboxy-2,5-dihydroxybenzamido)phthalic acid] | 35 | 110 | ≥ 200 | ≥ 100 | 57.7 | 42.32 | –
8 | O=C(O)c1cc(O)c(C(=O)Nc2ccc(C(=O)O)c(C(=O)O)c2)cc1O [Ia-014a, 4-(4-carboxy-2,5-dihydroxybenzamido)phthalic acid] | 20 | 20 | 88 | ≥ 100 | 61.3 | 9.667 | 1000
9 | O=C(O)c1cc(O)c(C(=O)NC(Cc2ccc(O)c(O)c2)C(=O)O)cc1O (centres unmarked) [Ia-035a-3, 4-(1-Carboxy-2-(3,4-dihydroxyphenyl)ethylaminocarbonyl)-2,5-dihydroxybenzoic acid] | 34 | 207 | 198 | 10 | 79.6 | 22 | 660
10 | CCOC(=O)c1cc(O)c(C(=O)Nc2ccccc2C(=O)OCC)cc1O [Ia-001a-E2, ethyl 4-(2-(ethoxycarbonyl)phenylaminocarbonyl)-2,5-dihydroxybenzoate] | 9.2 | ≥ 200 | 123 | 1.25 | 51.5 | 50.5 | 2580
11 | O=C(O)c1cccc(NC(=O)c2cc(O)c(C(=O)O)cc2O)c1 [Ia-002a, 4-(3-carboxyphenylaminocarbonyl)-2,5-dihydroxybenzoic acid] | 20 | 59 | 71 | 5.7 | 42.1 | 27.92 | 312
